Values joined by “and” are separate entries in the source; they are usually repeats but may differ in a detail not shown here. Identical values can stand only once. Inconclusive results and toxic doses are left out. Rule for the calls: active = survival T/C of 150% or more; inactive = T/C below 125% in these data.
Test system: BDF1 mice, B16 melanoma ip, median survival T/C
Assay: NCI In Vivo Anticancer Drug Screen. Data for tumor model B16 Melanoma (intraperitoneal) in B6D2F1 (BDF1) mice
Details: endpoint: median survival time, higher = longer survival
How it was run: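 Mice with transplantable tumors; drug vs vehicle groups; endpoint survival or tumor size; value = T/C.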

Measured: T/C

O=C(O)c1c2c(nc3ccccc13)Cc1ccccc1-2
active: dose: 67.0 mg/kg/injection, schedule: Q01DX009 (ip), vehicle: water 169 % of control | dose: 133.0 mg/kg/injection, schedule: Q01DX009 (ip), vehicle: Klucel (hydroxypropylcellulose) (HPC) 156 % of control | dose: 200.0 mg/kg/injection, schedule: Q01DX009 (ip), vehicle: water 152 % of control
inactive: dose: 3.12 mg/kg/injection, schedule: Q01DX009 (ip), vehicle: Klucel (hydroxypropylcellulose) (HPC) 100 % of control | dose: 6.25 mg/kg/injection, schedule: Q01DX009 (ip), vehicle: Klucel (hydroxypropylcellulose) (HPC) 96 % of control and 103 % of control | dose: 6.25 mg/kg/injection, schedule: Q01DX009 (ip), vehicle: water 89 % of control | dose: 12.5 mg/kg/injection, schedule: Q01DX009 (ip), vehicle: Klucel (hydroxypropylcellulose) (HPC) 98 % of control and 103 % of control and 119 % of control | dose: 12.5 mg/kg/injection, schedule: Q01DX009 (ip), vehicle: water 96 % of control and 108 % of control | dose: 25.0 mg/kg/injection, schedule: Q01DX009 (ip), vehicle: water 112 % of control and 114 % of control | dose: 30.0 mg/kg/injection, schedule: Q03HX008 (ip), vehicle: water 96 % of control | dose: 30.0 mg/kg/injection, schedule: Q03HX016 (ip), vehicle: water 107 % of control | dose: 30.0 mg/kg/injection, schedule: Q03HX024 (ip), vehicle: water 101 % of control | dose: 44.0 mg/kg/injection, schedule: Q01DX005 (iv), vehicle: water 102 % of control | dose: 44.0 mg/kg/injection, schedule: Q01DX009 (ip), vehicle: water 120 % of control | dose: 44.0 mg/kg/injection, schedule: Q01DX009 (sc), vehicle: water 102 % of control | dose: 44.0 mg/kg/injection, schedule: Q03HX008 (ip), vehicle: water 118 % of control | dose: 44.0 mg/kg/injection, schedule: Q03HX016 (ip), vehicle: water 102 % of control | dose: 44.0 mg/kg/injection, schedule: Q03HX024 (ip), vehicle: water 118 % of control | dose: 67.0 mg/kg/injection, schedule: Q01DX001 (ip), vehicle: water 107 % of control | dose: 67.0 mg/kg/injection, schedule: Q01DX005 (iv), vehicle: water 92 % of control | dose: 67.0 mg/kg/injection, schedule: Q01DX009 (oral), vehicle: water 99 % of control | dose: 67.0 mg/kg/injection, schedule: Q01DX009 (sc), vehicle: water 108 % of control | dose: 67.0 mg/kg/injection, schedule: Q03HX008 (ip), vehicle: water 106 % of control | dose: 67.0 mg/kg/injection, schedule: Q03HX016 (ip), vehicle: water 104 % of control | dose: 67.0 mg/kg/injection, schedule: Q03HX024 (ip), vehicle: water 112 % of control | dose: 67.0 mg/kg/injection, schedule: Q04DX003 (ip), vehicle: water 116 % of control | dose: 67.0 mg/kg/injection, schedule: Q08DX002 (ip), vehicle: water 106 % of control | dose: 89.0 mg/kg/injection, schedule: Q01DX001 (ip), vehicle: Klucel (hydroxypropylcellulose) (HPC) 106 % of control | dose: 100.0 mg/kg/injection, schedule: Q01DX001 (ip), vehicle: water 102 % of control | dose: 100.0 mg/kg/injection, schedule: Q01DX001 (oral), vehicle: water 101 % of control | dose: 100.0 mg/kg/injection, schedule: Q01DX005 (iv), vehicle: water 100 % of control | dose: 100.0 mg/kg/injection, schedule: Q01DX009 (oral), vehicle: water 94 % of control | dose: 100.0 mg/kg/injection, schedule: Q01DX009 (sc), vehicle: water 108 % of control | dose: 100.0 mg/kg/injection, schedule: Q03HX008 (ip), vehicle: water 120 % of control | dose: 100.0 mg/kg/injection, schedule: Q03HX016 (ip), vehicle: water 118 % of control | dose: 100.0 mg/kg/injection, schedule: Q03HX024 (ip), vehicle: water 112 % of control | dose: 100.0 mg/kg/injection, schedule: Q04DX003 (ip), vehicle: water 110 % of control | dose: 100.0 mg/kg/injection, schedule: Q08DX002 (ip), vehicle: water 113 % of control | dose: 133.0 mg/kg/injection, schedule: Q04DX003 (ip), vehicle: Klucel (hydroxypropylcellulose) (HPC) 124 % of control | dose: 150.0 mg/kg/injection, schedule: Q01DX001 (ip), vehicle: water 98 % of control and 104 % of control | dose: 150.0 mg/kg/injection, schedule: Q01DX001 (oral), vehicle: water 98 % of control | dose: 150.0 mg/kg/injection, schedule: Q01DX005 (iv), vehicle: water 102 % of control | dose: 150.0 mg/kg/injection, schedule: Q01DX009 (oral), vehicle: water 90 % of control | dose: 150.0 mg/kg/injection, schedule: Q01DX009 (sc), vehicle: water 115 % of control | dose: 150.0 mg/kg/injection, schedule: Q03HX008 (ip), vehicle: water 121 % of control | dose: 150.0 mg/kg/injection, schedule: Q04DX003 (ip), vehicle: water 108 % of control and 122 % of control | dose: 150.0 mg/kg/injection, schedule: Q08DX002 (ip), vehicle: water 121 % of control | dose: 200.0 mg/kg/injection, schedule: Q01DX001 (ip), vehicle: Klucel (hydroxypropylcellulose) (HPC) 124 % of control | dose: 225.0 mg/kg/injection, schedule: Q01DX001 (ip), vehicle: water 93 % of control and 110 % of control | dose: 225.0 mg/kg/injection, schedule: Q01DX001 (oral), vehicle: water 94 % of control | dose: 225.0 mg/kg/injection, schedule: Q01DX005 (iv), vehicle: water 104 % of control | dose: 225.0 mg/kg/injection, schedule: Q01DX009 (oral), vehicle: water 92 % of control | dose: 225.0 mg/kg/injection, schedule: Q01DX009 (sc), vehicle: water 104 % of control | dose: 225.0 mg/kg/injection, schedule: Q04DX003 (ip), vehicle: water 107 % of control and 111 % of control | dose: 225.0 mg/kg/injection, schedule: Q08DX002 (ip), vehicle: water 111 % of control | dose: 337.0 mg/kg/injection, schedule: Q01DX001 (ip), vehicle: water 98 % of control | dose: 337.0 mg/kg/injection, schedule: Q01DX001 (oral), vehicle: water 99 % of control | dose: 337.0 mg/kg/injection, schedule: Q01DX009 (oral), vehicle: water 97 % of control | dose: 337.0 mg/kg/injection, schedule: Q04DX003 (ip), vehicle: water 105 % of control and 112 % of control | dose: 450.0 mg/kg/injection, schedule: Q01DX001 (ip), vehicle: Klucel (hydroxypropylcellulose) (HPC) 111 % of control | dose: 506.0 mg/kg/injection, schedule: Q01DX001 (oral), vehicle: water 93 % of control
